Data reported in patent publication US20240391928A1, “COMPOSITIONS FOR THE TREATMENT OF FOOD AND CHEMICAL ADDICTION AND METHODS OF MAKING AND USING SAME” (Duke University, priority 2021, published 2024).
“Also recorded” adds a separate entry of the source.

Tests used:
[1] = target: T1, human GHSR1a^WT (Gαq) (Homo sapiens, UniProt Q92847); experiment: TRUPATH (BRET) Gαq dissociation
Procedure: BRET-based Gαq Dissociation & β-arr2 Recruitment Assays. TRUPATH Gα dissociation: Gαq/i1/i2/OA/12/13/sS^RLuc8 and Gγ8^GFP2 or Gγ9^GFP2 were transiently co-transfected with human 3×HA-GHSR1a^WT and untagged Gβ3 at a 1:1:1:1 ratio (100 μg each) into monolayers of HEK293/T cells along with 1.6 μg pcDNA3.1. The next morning, media (DMEM supplemented with 10% FBS and antibiotic/antimycotic) was exchanged and after 4-6 hours, cells were plated on white 96-well, clear-bottomed assay plates at a density of 40,000-50,000 cells/well in opti-MEM supplemented with 2% FBS and antibiotic/antimycotic. The next morning, opti-MEM was removed and cells were incubated with 80 μL HBSS supplemented with 20 mM HEPES (pH 7.4) for 4 hours. Cells were then treated with 10 μL of the luminescent substrate, coelenterazine 400a (5 μM final), for 5 minutes at room temperature prior to the addition of 10 μL of test compound. Five minutes after ligand application, luminescence was measured by a Mithras 940 plate reader over 30 minutes and the maximal response was utilized for generating all C/R curves.

[2] = target: T2, mGHSR A199P (Mus musculus, UniProt Q99P50, A199P); experiment: Gαq dissociation and β-arr2 recruitment at humanized mouse receptor; type: cell-based
T2 construct: expressed in transfected cells
Procedure: To assess if N8279 signaling required receptor sites within and/or conformational states are conserved from the mouse receptor to the human receptor, the amino acid sequences for variations within the ECL2 were first determined (FIG. 17A). Mutations were made to human GHSR1a receptor (hGHSR) for W193R and P200A and to mouse GHSR1a receptor (mGHSR) for […]. N8279-stimulated Gαq dissociation (FIG. 17B) and β-arr2 recruitment (FIG. 17C) were evaluated for each hGHSR and mGHSR mutants in comparison to endogenous (WT) receptors.

[3] = target: T3, hGHSR1a^D99A (Homo sapiens, UniProt Q92847, D99A); experiment: Gαq dissociation (TRUPATH) and iCa2+ at D99A mutant; type: cell-based; settings: surface expression reduced markedly
T3 construct: expressed in transfected cells; host or cells: HEK293/T, transient
Procedure: (§1) For experiments with WT and Gt KO HEK293/S cells, […] of hGHSR1a^WT, 10 μg of miAEQ, and 2.5 μg of pcDNA3.1 was transiently transfected into 10 cm dishes and incubated overnight. […] Twenty-four hours later, experiments proceeded in accordance with the procedures described above. To control for any possible kinetic differences in genetically modified cell lines or GHSR1a variants, the average ligand-induced response over 10 seconds was calculated, then normalized by dividing the L-miAeq by the L-miAeq plus the Lysis-miAeq and normalized to the appropriate control/reference condition.

[4] = test system: C57BL/6J mice; experiment: Novelty-induced open-field locomotion in WT mice; type: in vivo, mouse; settings: 2.5, 5, 10 mg/kg IP
Procedure: N=14-17 mice per treatment group.
Novelty-induced locomotor activity in DAT KO and inbred C57BL/6J mice. Open-field locomotor activity in mice was performed similar to that described in Barak et al., ACS Chem Biol. (2016)11(7):1880-90, the disclosure of which is incorporated herein in its entirety. In brief, Age- and sex-matched, littermate DAT KO and inbred C57BL/6J mice between 2-6 months of age were used to measure locomotor activity in an Omnitech Digiscan activity monitor (20×20 cm2; Accuscan Instruments, Columbus, OH). Locomotor activity was measured at 5 minutes intervals.

[5] = test system: GPCRome (320 receptors); experiment: PRESTO-Tango GPCRome β-arr2 recruitment screen, other receptors; type: cell-based; settings: N8279 1 μM; hit >3-fold
Procedure: (§2) Hits were defined as >3-fold activation above baseline. […] The assay quality was assessed by plotting duplicate, independent trial averages (derived from 4 independent wells) for each receptor as a point (X,Y). The corresponding plot of points for an ideal assay were fit by a regression line with the slope=1.

[6] = target: T4, hGHSR1a^WT-RLucII (Homo sapiens, UniProt Q92847); experiment: Bystander BRET internalization (MyrPalm-Venus); type: cell-based; settings: over 60 minutes
T4 construct: expressed in transfected cells; host or cells: HEK293/T, transient
Procedure: (§3) Bystander BRET (bBRET). hGHSR1a^WT-RLucII and plasma membrane marker, MyrPalm^mVenus, or the early endosomal marker, 2×-FYVE^mVenus, was transiently co-transfected in HEK293/T cells at a ratio of 1:5 or 1:12.5, respectively. […] Plates were then read by a Mithras 940 plate reader every 5 minutes over 1 hour (MyrPalm^mVenus) or 2 hours (2×FYVE^mVenus) to determine a BRET ratios. To generate CR curves, the average net BRET over 60 minutes post-treatment was used.

[7] = target: T1, human GHSR1a^WT (Gαq); experiment: NanoBiT Gαq dissociation/activation; type: cell-based; design: HEK293/T (transient); HEK293S Gαq knockout (transient, NanoBiT Gαq)
[8] = target: T5, hGHSR1a^WT-LgBiT / SmBiT-β-arr2 (Homo sapiens, UniProt Q92847); experiment: NanoBiT β-arr2 recruitment; type: cell-based
T5 construct: expressed in transfected cells; host or cells: HEK293/T, transient
Procedure: β-arr2 recruitment: In agonist and antagonist assays of NanoBiT-based β-arr2 recruitment, hGHSR1a^WT-Lg^BiT and ^SmBiT-β^WT were transiently co-transfected at a 1:1 ratio (250 μg each) into monolayers of HEK293/T cells on 6-well plates along with 2 μg of pcDNA3.1. For assays employing the Ala204Glu variant, hGHSR1a^A204E-Lg^BiT was transfected at 2×hGHSR1a^WT-Lg^BiT, as performed for iCa^2+ assays with hGHSR1a^A204E described above. For GHSR1a-β-arr2 saturation assays, a fixed amount of hGHSR1a^WT-Lg^BiT cDNA (250 μg) was transfected with 0, 62.5 (1:0.25), 125 (1:0.5), 250 (1:1), 500 (1:2), or 1000 (1:4) μg of ^SmBiTβ-arr^WT. The morning after transfection, media was exchanged and after 4-6 hours, cells were then plated on white 96-well, clear-bottomed assay plates at a density of 45,000 cells/well in opti-MEM supplemented with 2% FBS and antibiotic/antimycotic. The following morning, opti-MEM was removed and cells were incubated with 70-80 μL HBSS supplemented with 20 mM HEPES (pH 7.4) for 4 hours. Cells were then treated with 10 μL of coelenterazine H (5 μM final) for 15-20 minutes at room temperature. Cells were then stimulated with 10 μL of test compounds and 2 minutes later, luminescence was measured over 5 minutes, which encompassed the peak β-arr2 recruitment signal.

[9] = target: T6, GHSR1a^N305A (Homo sapiens, UniProt Q92847, N305A); experiment: iCa2+ at N305A mutant; type: cell-based
T6 construct: expressed in transfected cells; host or cells: HEK293/T
Procedure: as §1

[10] = target: hGHSR1a^WT (Homo sapiens, UniProt Q92847); settings: 100 nM, 45 minutes
Procedure: U2OS cells stably expressing the human GHSR1a^WT and β-arr2^GFP were seeded onto 35 mm MatTek (Ashland, MA, USA) glass coverslip dishes in opti-MEM supplemented with 2% FBS and antibiotic-antimycotic and grown overnight in a humified incubator (5% CO2, 37° C.). The next morning, media was aspirated and replaced with fresh, serum-free opti-MEM (supplemented with antibiotic-antimycotic). […] Next, treatment was terminated by aspiration of media, a PBS wash, and fixation with 4% paraformaldehyde (20 minutes, room temperature (RT)). Fixed cells were either stored at 4° C. or immediately imaged for β-arr2^GFP translocation with a Zeiss LSM 510 meta confocal microscopy.

[11] = target: GHSR1a (Homo sapiens, UniProt Q92847); experiment: PRESTO-Tango GPCRome β-arr2 recruitment screen; type: cell-based; design: expressed in transfected cells; settings: N8279 1 μM
Procedure: as §2

[12] = target: T7, hGHSR1a^WT in Gαq/11 KO HEK293/S cells (Homo sapiens, UniProt Q92847); experiment: iCa2+ in Gαq/11 KO HEK293/S cells; type: cell-based; settings: 10 μM ligand
T7 construct: expressed in transfected cells; SRF-RE reporter); HEK293/S Gαq/11 KO and parental WT (iCa2+)
Procedure: as §1

[13] = target: T4, hGHSR1a^WT-RLucII; experiment: Bystander BRET endosomal trafficking (2xFYVE-Venus); type: cell-based; settings: 60-minute post-treatment
Procedure: as §3

[14] = 5 minute pretreatment, ghrelin 40 nM

T4 sequence (Q92847 whole entry): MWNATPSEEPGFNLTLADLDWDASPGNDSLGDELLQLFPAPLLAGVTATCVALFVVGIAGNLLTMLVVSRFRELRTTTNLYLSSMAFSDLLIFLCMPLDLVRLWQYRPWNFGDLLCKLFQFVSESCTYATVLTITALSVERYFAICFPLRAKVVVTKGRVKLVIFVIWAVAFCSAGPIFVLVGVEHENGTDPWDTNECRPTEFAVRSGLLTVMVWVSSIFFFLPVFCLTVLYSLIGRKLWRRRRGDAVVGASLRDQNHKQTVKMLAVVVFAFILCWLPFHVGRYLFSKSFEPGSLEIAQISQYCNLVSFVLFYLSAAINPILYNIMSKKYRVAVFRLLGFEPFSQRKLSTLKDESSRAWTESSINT
T1 sequence (Q92847 whole entry): as above
T5 sequence (Q92847 whole entry): as above
T5 sequence (P32121 whole entry partner): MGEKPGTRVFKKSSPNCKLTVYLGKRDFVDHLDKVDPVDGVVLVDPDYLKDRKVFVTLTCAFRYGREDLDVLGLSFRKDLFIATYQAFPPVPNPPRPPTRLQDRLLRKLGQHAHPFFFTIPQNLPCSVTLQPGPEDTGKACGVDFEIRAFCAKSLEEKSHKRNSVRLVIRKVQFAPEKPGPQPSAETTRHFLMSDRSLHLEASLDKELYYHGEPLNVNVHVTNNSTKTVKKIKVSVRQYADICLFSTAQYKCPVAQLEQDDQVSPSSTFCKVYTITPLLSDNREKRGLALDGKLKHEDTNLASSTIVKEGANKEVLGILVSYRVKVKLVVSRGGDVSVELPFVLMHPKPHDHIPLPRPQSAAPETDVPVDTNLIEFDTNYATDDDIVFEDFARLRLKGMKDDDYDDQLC
T3 sequence (Q92847 whole entry D99A): as the sequence (Q92847 whole entry) above, with D99A counted along it
T6 sequence (Q92847 whole entry N305A): as the sequence (Q92847 whole entry) above, with N305A counted along it
Sequence of GHSR1a (Q92847 whole entry): as the sequence (Q92847 whole entry) above
Sequence of hGHSR1a^WT (Q92847 whole entry): as above
T7 sequence (Q92847 whole entry): as above
T2 sequence (Q99P50 whole entry A199P): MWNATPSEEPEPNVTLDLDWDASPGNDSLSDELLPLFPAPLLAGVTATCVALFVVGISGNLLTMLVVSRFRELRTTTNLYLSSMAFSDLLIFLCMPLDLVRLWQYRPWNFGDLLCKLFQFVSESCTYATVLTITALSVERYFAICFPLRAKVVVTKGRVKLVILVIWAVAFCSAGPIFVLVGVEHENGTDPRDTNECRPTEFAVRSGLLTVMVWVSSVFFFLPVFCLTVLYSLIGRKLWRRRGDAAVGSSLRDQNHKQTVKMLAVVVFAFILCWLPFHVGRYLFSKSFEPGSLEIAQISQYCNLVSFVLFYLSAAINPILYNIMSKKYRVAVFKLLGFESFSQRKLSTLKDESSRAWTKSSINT

SMILES: COc1ccc(C(=O)c2c(C(=O)NCCCN(C)C)oc3ccc(Cl)cc3c2=O)cc1OC [Example N8279, 6-Chloro-3-(3,4-dimethoxybenzoyl)-N-(3-(dimethylamino)propyl)-4-oxo-4H-chromene-2-carboxamide]
- BRET-Gαq potency, fold less potent than L585 [1]: 1.7 fold
- BRET-Gαq potency, fold less potent than ghrelin [1]: 6.1 fold
- Gαq activation efficacy in words ([1]; NanoBiT and BRET (TRUPATH) assays): full agonist
- signaling at humanized mGHSR in words [2]: rescues
- signaling at GHSR1a^D99A in words [3]: abolished
- novelty-induced open-field locomotion in words [4]: No statistically significant differences; also recorded: did not affect
- activation above baseline at any other GPCR [5]: ≤ 3 fold
- internalization efficacy attenuation relative to ghrelin (bBRET MyrPalm) [6]: ~20%
- internalization potency reduction relative to ghrelin (bBRET MyrPalm) [6]: 32 fold
- Gαq activation Emax (NanoBiT) [7]: 118.3±9.8
- NanoBiT β-arr2 recruitment, fold less potent than L585 [8]: ~43 fold
- NanoBiT β-arr2 recruitment, fold less potent than ghrelin [8]: ~20 fold
- inhibition of EC80 ghrelin-induced β-arr2 recruitment in words [8, 14]: significantly, but incompletely
- inhibition of EC80 ghrelin-induced β-arr2 recruitment, fold less potent than JMV2959 [8, 14]: 1.7 fold
- inhibition of EC80 ghrelin-induced β-arr2 recruitment, fold less potent than YIL781 [8, 14]: 2.9 fold
- relative affinity (BiTd) of β-arr2 for GHSR1a, fold weaker than in ghrelin-treated cells ([8]; saturation, N8279 100-200 nM vs ghrelin 100 nM): 22.5 fold
- iCa2+ potency reduction at GHSR1a^N305A [9]: 6.5 fold
- β-arr2^GFP translocation in words [10]: minimal response
- activation above baseline at GHSR1a [11]: 6 fold
- agonist-induced iCa2+ in Gαq/11 KO cells [12]: abolished
- endosomal transit, fold less potent than ghrelin (bBRET 2xFYVE) [13]: 32 fold
- endosomal transit, less efficacious than ghrelin (bBRET 2xFYVE) [13]: ~35%
